Test results taken from US6251853A, “PTX sensitive G proteins, the production and use thereof” (priority 1996, dated 2001).

Legend:
[1] = system: PTX-sensitive G proteins (heterotrimeric G proteins of the Gi type); experiment: mastoparan 7-stimulated [35S]GTPγS binding to digitonin-permeabilized cells from normotensives and hypertensives; format: cell-based, human
Protocol: (§1) A detailed characterization was carried out of the activation of G proteins from cells of normotensive subjects and hypertensive patients. For this purpose, the stimulated incorporation of radiolabeled [^35 S] GTPγS was quantified by the method described by Wieland et al. (Wieland, T., Liedel, K., Xaldenberg-Stasch, S., Meyer zu Heringdorf, D., Schmidt, M., and Jakobs, K. E. Analysis of receptor-G protein interactions in permeabilized cells. Naunyn-Schmiedeberg's Arch.Pharmacol. 351:329-336,1995). G Proteins were activated initially by stimulating cells which had been permeabilized with digitonin using the peptide mastoparan 7. This peptide simulates the configuration of an activated G protein-coupled receptor so that it can be used to induce direct G protein activation independent of receptors (Ross, E. M. and Higashijima, T. Regulation of G protein activation by mastoparan and other cationic peptides. Methods Enzymol. 237:27-38, 1994). The binding of GTPγS induced by MAS-7 is completely PTX-sensitive so that it can be used to quantify the activation of heterotrimeric G proteins of the Gi type. […] MAS-7 induces strong [^35 S] GTPγS binding on HT cells with an EC50 of about 5 μm (FIG. 2). Maximum binding is reached at about 25 to 50 μm MAS-7. In contrast to this, the concentration required for the same [^35 S] GTPγS binding to NT cells are [sic] 10 times higher (FIG. 2).
GTPγS to cell lines from normotensives (NT) and hypertensives (HT).
The binding of [^35 S] GTPγS to hypertensive cells is distinctly speeded up (rate constants 0.005 s^-1 in the normotensive versus 0.01 s^-1 in the hypertensive state).

PTX-sensitive G proteins = experiment: mastoparan 7-stimulated [35S]GTPγS binding to isolated cell membranes from normotensives and hypertensives; format: biochemical, human
Protocol: as §1
GTPγS to isolated cell membranes from normotensives and hypertensives. It is evident that the maximum stimulated binding of [^35 S] GTPγS to membranes from hypertensives occurs at lower concentrations of GDP (about 0.2 μmol/l), where a concentration of 1 μmol/l GDP is required for the same effect in normotensives.
In a similar way, the maximum binding, stimulated by mastoparan 7, of [^35 S] GTPγS to membrane preparations from hypertensive cells a low concentration of free Mg^2+ (about 0.01 mmol/l), while a free Mg^2+ concentration of 0.1 mmol/l is necessary for the same maximum binding of [^35 S] GTPγS to membranes from normotensive cells (FIG. 5).

Molecule: mastoparan 7 [MAS-7]
- EC50 ([1]; HT (hypertensive) cells, digitonin-permeabilized, read-out: EC50 of induced [35S]GTPγS binding): ~5 µM
- concentration required for the same [35S]GTPγS binding to NT cells, relative to HT cells ([1]; NT (normotensive) versus HT cells): 10 times higher
- rate constant of stimulated [35S]GTPγS binding ([1]; hypertensive state): 0.01 s⁻¹
- rate constant of stimulated [35S]GTPγS binding ([1]; normotensive state): 0.005 s⁻¹

Molecule: [Mg+2] [Mg^2+]
- free Mg2+ concentration for maximum mastoparan 7-stimulated [35S]GTPγS binding (PTX-sensitive G proteins; membrane preparations from hypertensive cells): about 0.01 mmol/l
- free Mg2+ concentration for maximum mastoparan 7-stimulated [35S]GTPγS binding (PTX-sensitive G proteins; membranes from normotensive cells): 0.1 mmol/L

Molecule: Nc1nc2c(ncn2[C@@H]2O[C@H](COP(=O)(O)OP(=O)(O)O)[C@@H](O)[C@H]2O)c(=O)[nH]1 [GDP]
- GDP concentration at which maximum mastoparan 7-stimulated [35S]GTPγS binding occurs (PTX-sensitive G proteins; membranes from hypertensives): about 0.2 μmol/l
- GDP concentration required for maximum mastoparan 7-stimulated [35S]GTPγS binding (PTX-sensitive G proteins; membranes from normotensives): 1 µmol/L
